Assay results: paper PMC9288506, “Compounds activating VCP D1 ATPase enhance both autophagic and proteasomal neurotoxic protein clearance” (Nature Communications, 2022)

Target: T1, VCP (p97, Valosin-containing protein) (Homo sapiens, UniProt P55072)
T1 construct: Full-length VCP (6xHis-tag)
Experiment: SPR
Format: binding

T1 sequence (P55072 2-806): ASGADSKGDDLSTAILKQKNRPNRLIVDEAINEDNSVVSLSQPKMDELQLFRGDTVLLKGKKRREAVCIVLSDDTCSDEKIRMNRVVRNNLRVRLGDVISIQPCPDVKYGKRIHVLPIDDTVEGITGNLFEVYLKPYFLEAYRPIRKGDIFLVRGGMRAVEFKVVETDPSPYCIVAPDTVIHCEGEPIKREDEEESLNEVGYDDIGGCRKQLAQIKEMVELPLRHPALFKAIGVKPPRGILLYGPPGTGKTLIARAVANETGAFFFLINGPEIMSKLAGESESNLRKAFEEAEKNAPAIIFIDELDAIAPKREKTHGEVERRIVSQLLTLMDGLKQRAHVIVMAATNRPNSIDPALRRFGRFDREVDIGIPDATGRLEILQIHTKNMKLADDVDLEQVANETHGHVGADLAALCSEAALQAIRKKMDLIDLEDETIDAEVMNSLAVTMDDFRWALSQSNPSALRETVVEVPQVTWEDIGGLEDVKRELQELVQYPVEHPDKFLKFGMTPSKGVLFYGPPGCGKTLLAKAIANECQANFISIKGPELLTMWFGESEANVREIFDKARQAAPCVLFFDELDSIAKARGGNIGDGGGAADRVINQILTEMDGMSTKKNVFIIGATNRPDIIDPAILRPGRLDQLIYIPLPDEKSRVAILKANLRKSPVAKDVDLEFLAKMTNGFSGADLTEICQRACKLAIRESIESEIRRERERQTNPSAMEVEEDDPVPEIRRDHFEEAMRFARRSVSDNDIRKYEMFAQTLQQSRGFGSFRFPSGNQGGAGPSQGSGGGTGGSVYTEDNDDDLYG

| Compound | Kd |
| --- | --- |
| Nc1ncnc2c1ncn2[C@@H]1O[C@H](COP(=O)(O)OP(=O)(O)O)[C@@H](O)[C@H]1O [ADP] | ~800 nM |
| COc1cccc2c(NCc3ccccc3)nc(-n3c(N)nc4ccccc43)nc12 [ML240] | 230 ± 30 nM |
